Results reported in patent US6737383B1, “Herbicidal oxadiazolidines” (priority 1999, dated 2004).

Assays:
Settings in all cases: Preemergence
[1] = system: bedstraw; assay: Test B pre/postemergence bedstraw; format: in vivo, Galium aparine
Outline: (§1)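 Test chemicals in a non-phytotoxic solvent mixture with surfactant were sprayed preemergence onto planted seeds and postemergence onto plants 2 to 18 cm tall (1- to 4-leaf stage). After twelve to sixteen days in a greenhouse, injury was visually rated against untreated controls from 0 (no effect) to 10 (complete control).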

[2] = system: blackgrass; assay: Test B pre/postemergence blackgrass; format: in vivo, Alopecurus myosuroides
Outline: as §1

[3] = system: surinam grass; assay: Test B pre/postemergence surinam grass; format: in vivo, Brachiaria decumbens
Outline: as §1

[4] = system: cocklebur; assay: Test B pre/postemergence cocklebur; format: in vivo, Xanthium strumarium
Outline: as §1

[5] = system: corn; assay: Test B pre/postemergence corn; format: in vivo, Zea mays
Outline: as §1

[6] = system: crabgrass; assay: Test B pre/postemergence crabgrass; format: in vivo, Digitaria sanguinalis
Outline: as §1

[7] = system: giant foxtail; assay: Test B pre/postemergence giant foxtail; format: in vivo, Setaria faberii
Outline: as §1

[8] = system: morningglory; assay: Test B pre/postemergence morningglory; format: in vivo, Ipomoea hederacea
Outline: as §1

[9] = system: pigweed; assay: Test B pre/postemergence pigweed; format: in vivo, Amaranthus retroflexus
Outline: as §1

[10] = system: rape; assay: Test B pre/postemergence rape; format: in vivo, Brassica napus
Outline: as §1

[11] = system: soybean; assay: Test B pre/postemergence soybean; format: in vivo, Glycine max
Outline: as §1

[12] = system: sugar beet; assay: Test B pre/postemergence sugar beet; format: in vivo, Beta vulgaris
Outline: as §1

[13] = system: velvetleaf; assay: Test B pre/postemergence velvetleaf; format: in vivo, Abutilon theophrasti
Outline: as §1

[14] = system: wheat; assay: Test B pre/postemergence wheat; format: in vivo, Triticum aestivum
Outline: as §1

[15] = system: wild oat; assay: Test B pre/postemergence wild oat; format: in vivo, Avena fatua
Outline: as §1

[16] = system: purple nutsedge; assay: Test B pre/postemergence purple nutsedge; format: in vivo, Cyperus rotundus
Outline: as §1

[17] = Rate 125 g/ha, scale of 0 to 10 where 0 is no effect and 10 is complete control
[18] = Rate 250 g/ha, scale 0 (no effect) to 10 (complete control)
[19] = Rate 500 g/ha, scale 0 to 10 (0 no effect, 10 complete control)

CC(C)N(C(=O)n1oc(=O)n(CBr)c1=O)c1ccccc1 [Compound 755]
0: Plant response rating, Bedstraw [1, 17] | Bedstraw plant response rating [1, 18] | Bedstraw plant response rating ([1]; Rate 62 g/ha, scale 0 to 10) | Bedstraw plant response rating [1, 19] | Plant response rating, Blackgrass [2, 17] | Blackgrass plant response rating [2, 18] | Blackgrass plant response rating ([2]; Rate 62 g/ha, scale 0 to 10) | Blackgrass plant response rating [2, 19] | B. signalgrass plant response rating ([3]; Rate 62 g/ha, scale of 0 to 10 where 0 is no effect and 10 is complete control) | Plant response rating, B. signalgrass [3, 17] | B. signalgrass plant response rating [3, 18] | B. signalgrass plant response rating [3, 19] | Plant response rating, Cocklebur [4, 17] | Cocklebur plant response rating [4, 18] | Cocklebur plant response rating ([4]; Rate 62 g/ha, scale 0 to 10) | Cocklebur plant response rating [4, 19] | Plant response rating, Corn [5, 17] | Corn plant response rating [5, 18] | Corn plant response rating ([5]; Rate 62 g/ha, scale 0 to 10) | Corn plant response rating [5, 19] | Plant response rating, Crabgrass [6, 17] | Crabgrass plant response rating [6, 18] | Crabgrass plant response rating ([6]; Rate 62 g/ha, scale 0 to 10) | Crabgrass plant response rating [6, 19] | Plant response rating, Giant foxtail [7, 17] | Giant foxtail plant response rating [7, 18] | Giant foxtail plant response rating ([7]; Rate 62 g/ha, scale 0 to 10) | Plant response rating, Morningglory [8, 17] | Morningglory plant response rating [8, 18] | Morningglory plant response rating ([8]; Rate 62 g/ha, scale 0 to 10) | Morningglory plant response rating [8, 19] | Plant response rating, Redroot pigweed [9, 17] | Redroot pigweed plant response rating [9, 18] | Redroot pigweed plant response rating ([9]; Rate 62 g/ha, scale 0 to 10) | Redroot pigweed plant response rating [9, 19] | Plant response rating, Rape [10, 17] | Rape plant response rating [10, 18] | Rape plant response rating ([10]; Rate 62 g/ha, scale 0 to 10) | Rape plant response rating [10, 19] | Plant response rating, Soybean [11, 17] | Soybean plant response rating [11, 18] | Soybean plant response rating ([11]; Rate 62 g/ha, scale 0 to 10) | Soybean plant response rating [11, 19] | Plant response rating, Sugarbeets [12, 17] | Sugarbeets plant response rating [12, 18] | Sugarbeets plant response rating ([12]; Rate 62 g/ha, scale 0 to 10) | Sugarbeets plant response rating [12, 19] | Plant response rating, Velvetleaf [13, 17] | Velvetleaf plant response rating [13, 18] | Velvetleaf plant response rating ([13]; Rate 62 g/ha, scale 0 to 10) | Velvetleaf plant response rating [13, 19] | Plant response rating, Wheat [14, 17] | Wheat plant response rating [14, 18] | Wheat plant response rating ([14]; Rate 62 g/ha, scale 0 to 10) | Wheat plant response rating [14, 19] | Plant response rating, Wild oats [15, 17] | Wild oats plant response rating [15, 18] | Wild oats plant response rating ([15]; Rate 62 g/ha, scale 0 to 10) | Wild oats plant response rating [15, 19] | Nutsedge plant response rating [16, 18] | Nutsedge plant response rating ([16]; Rate 62 g/ha, scale 0 to 10) | Nutsedge plant response rating [16, 19]
2: Giant foxtail plant response rating [7, 19]
